Assay results as given in patent US20250123269A1 (priority 2023, published 2025).
Counter-ions that a name gives are not always drawn. Peptide text beside a SMILES is read from it. * marks the point of attachment. Decanoyl = CCCCCCCCCC(=O)*; CH2Cl = ClC*

What was measured:
[1] = test system: WT SARS-COV-2 (USA-WA1/2020); type: cell-based
[2] = test system: SARS-COV-2 omicron JN.1; assay: microbe, parasite or virus in culture; type: cell-based; conditions: Severe acute respiratory syndrome coronavirus 2, 48 h; for inhibition at 36 µM: read-out: replication inhibition
[3] = test system: SARS-COV-2; conditions: cited from earlier work
[4] = test system: ACE2plusC3 cells
[5] = test system: SARS-COV-2 (WA1/2020); type: cell-based
[6] = test system: 229E-CoV; assay: organism not typed; type: cell-based; conditions: for IC50: 48 h
[7] = target: main protease of SARS-COV-2 (Severe acute respiratory syndrome coronavirus 2, UniProt P0DTD1); conditions: cited from earlier work
[8] = test system: MERS-COV; type: cell-based

Row | SMILES | dose-dependent inhibition of infection [1] | inhibition of SARS-COV-2 infection (dose-response curve) [1] | inhibition of infection [1] | IC50 [2] | inhibition at 36 µM [2] | also measured
1 | O=c1nc(NO)ccn1[C@@H]1O[C@H](CO)[C@@H](O)[C@H]1O [EIDD-1931] | dose-dependent inhibition of infection | strong inhibition efficacy | complete inhibition | – | – | reduction of infection [1]: at least 50%
2 | CCN(CC)Cc1cc(Nc2ccnc3cc(Cl)ccc23)ccc1O [amodiaquine] | – | – | – | 12 to 12.1 µM | 80 to 95% | –
3 | CN(C)C(=O)COC(=O)Cc1ccc(OC(=O)c2ccc(NC(=N)N)cc2)cc1 [camostat mesylate] | – | significantly inhibited | – | – | – | SARS-COV-2-driven entry and infection [3]: significantly reduces; cell toxicity [4]: without causing cell toxicity
4 | CCN(CC)CCCC(C)Nc1ccnc2cc(Cl)ccc12 (stereo not drawn) [chloroquine] | – | – | – | 12 to 12.1 µM | 80 to 95% | –
5 | CCCCCCCCCC(=O)N[C@@H](CCCN=C(N)N)C(=O)N[C@H](C(=O)N[C@@H](CCCCN)C(=O)N[C@@H](CCCN=C(N)N)C(=O)CCl)C(C)C [decanoyl-RVKR-CMK] (Decanoyl-RVKR-CH2Cl) | – | – | – | – | – | inhibition of infection by plaque assay (viral titer) [5]: moderate inhibition of infection; inhibition of infection by immunofluorescence [1]: moderate inhibition of infection
6 | Cn1cnc(Cn2c(=O)[nH]/c(=N\c3cc4cn(C)nc4cc3Cl)n(Cc3cc(F)c(F)cc3F)c2=O)n1 [ensitrelvir] | – | – | – | – | – | inhibitory effect on infected cells [6]: no inhibitory effect
7 | CCCCN(CCCC)CCC(O)c1cc2c(Cl)cc(Cl)cc2c2cc(C(F)(F)F)ccc12 (stereo not drawn) [halofantrine] | – | – | – | 4 µM | 80 to 95% | binding to main protease [7]: effectively binds
8 | Cc1c(O)cccc1C(=O)N[C@@H](CSc1ccccc1)[C@H](O)CN1C[C@H]2CCCC[C@H]2C[C@H]1C(=O)NC(C)(C)C [nelfinavir] | dose-dependent inhibition of infection | potent and dose-dependent inhibition of infection | did not completely inhibit infection | – | – | concentration with increased toxicity ([4]; human): ≥ 25 µM
9 | CC(C)(C)[C@H](NC(=O)C(F)(F)F)C(=O)N1C[C@H]2[C@@H]([C@H]1C(=O)N[C@H](C#N)C[C@@H]1CCNC1=O)C2(C)C [nirmatrelvir, Nirmatrelvir] | dose-dependent inhibition of infection | strong inhibition efficacy | nearly completely inhibited | – | – | IC50 [6]: 818 to 1030 nM; CPE inhibition [8]: approximately 90%
10 | N#C[C@H](C[C@@H]1CCCNC1=O)NC(=O)[C@H](CC1CC1)NC(=O)c1cc2cccc(Cl)c2[nH]1 [pomotrelvir] | – | – | – | – | – | IC50 [6]: 818 to 1030 nM
